# Laboratory results as given in US6737383B1, “Herbicidal oxadiazolidines” (priority 1999, dated 2004).
# Assays:
# wheat = assay: Test B pre/postemergence wheat; type: in vivo, Triticum aestivum
# Procedure, shortened: (§1)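 Test chemicals in a non-phytotoxic solvent mixture with surfactant were sprayed preemergence onto planted seeds and postemergence onto plants 2 to 18 cm tall (1- to 4-leaf stage). After twelve to sixteen days in a greenhouse, injury was visually rated against untreated controls from 0 (no effect) to 10 (complete control).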
# surinam grass = assay: Test B pre/postemergence surinam grass; type: in vivo, Brachiaria decumbens
# Procedure, shortened: as §1
# purple nutsedge = assay: Test B pre/postemergence purple nutsedge; type: in vivo, Cyperus rotundus
# Procedure, shortened: as §1
# blackgrass = assay: Test B pre/postemergence blackgrass; type: in vivo, Alopecurus myosuroides
# Procedure, shortened: as §1
# pigweed = assay: Test B pre/postemergence pigweed; type: in vivo, Amaranthus retroflexus
# Procedure, shortened: as §1
# sugar beet = assay: Test B pre/postemergence sugar beet; type: in vivo, Beta vulgaris
# Procedure, shortened: as §1
# crabgrass = assay: Test B pre/postemergence crabgrass; type: in vivo, Digitaria sanguinalis
# Procedure, shortened: as §1
# velvetleaf = assay: Test B pre/postemergence velvetleaf; type: in vivo, Abutilon theophrasti
# Procedure, shortened: as §1
# corn = assay: Test B pre/postemergence corn; type: in vivo, Zea mays
# Procedure, shortened: as §1
# soybean = assay: Test B pre/postemergence soybean; type: in vivo, Glycine max
# Procedure, shortened: as §1
# giant foxtail = assay: Test B pre/postemergence giant foxtail; type: in vivo, Setaria faberii
# Procedure, shortened: as §1
# morningglory = assay: Test B pre/postemergence morningglory; type: in vivo, Ipomoea hederacea
# Procedure, shortened: as §1
# rape = assay: Test B pre/postemergence rape; type: in vivo, Brassica napus
# Procedure, shortened: as §1
# bedstraw = assay: Test B pre/postemergence bedstraw; type: in vivo, Galium aparine; settings: for Plant response rating, Bedstraw: Rate 62 g/ha, scale of 0 to 10 where 0 is no effect and 10 is complete control
# Procedure, shortened: as §1
# wild oat = assay: Test B pre/postemergence wild oat; type: in vivo, Avena fatua
# Procedure, shortened: as §1
# cocklebur = assay: Test B pre/postemergence cocklebur; type: in vivo, Xanthium strumarium
# Procedure, shortened: as §1
# [1] = Postemergence, Rate 62 g/ha, scale of 0 to 10, 0 is no effect, 10 is complete control
# [2] = Postemergence, Rate 500 g/ha, scale 0 to 10, 0 is no effect, 10 is complete control
# [3] = Preemergence, Rate 62 g/ha, scale of 0 to 10 where 0 is no effect and 10 is complete control
# [4] = Preemergence, Rate 125 g/ha, scale 0 to 10, 0 is no effect, 10 is complete control
# [5] = Preemergence, Rate 500 g/ha, scale of 0 to 10 where 0 is no effect and 10 is complete control
# [6] = Postemergence, Rate 125 g/ha, scale 0 to 10, 0 is no effect, 10 is complete control
# [7] = Preemergence, Rate 250 g/ha, scale 0 to 10, 0 is no effect, 10 is complete control
# [8] = Preemergence, Rate 500 g/ha, scale 0 to 10, 0 is no effect, 10 is complete control
# [9] = Postemergence, Rate 250 g/ha, scale 0 to 10
compound,measurement,setting,value
CC(C)N(C(=O)n1oc(=O)n(CCCF)c1=O)c1ccc(F)cc1F [Compound 500],Wheat plant response rating,wheat; [1],0
same,"Plant response rating, Wheat",wheat; [2],5
same,"Plant response rating, Wheat",wheat; [3],2
same,Wheat plant response rating,wheat; [4],6
same,Wheat plant response rating,wheat; [5],8
same,B. signalgrass plant response rating,surinam grass; [1],3
same,B. signalgrass plant response rating,surinam grass; [6],5
same,B. signalgrass plant response rating,"surinam grass; Postemergence, Rate 250 g/ha, scale 0 to 10, 0 no effect, 10 complete control",7
same,"Plant response rating, B. signalgrass",surinam grass; [2],8
same,"Plant response rating, B. signalgrass",surinam grass; [3],9
same,B. signalgrass plant response rating,surinam grass; [4],9
same,B. signalgrass plant response rating,surinam grass; [7],9
same,B. signalgrass plant response rating,surinam grass; [8],10
same,Nutsedge plant response rating,purple nutsedge; [1],0
same,"Plant response rating, Nutsedge",purple nutsedge; [2],2
same,"Plant response rating, Nutsedge",purple nutsedge; [3],0
same,Nutsedge plant response rating,purple nutsedge; [4],8
same,Nutsedge plant response rating,purple nutsedge; [5],10
same,Blackgrass plant response rating,blackgrass; [1],3
same,Blackgrass plant response rating,blackgrass; [6],4
same,Blackgrass plant response rating,blackgrass; [9],6
same,"Plant response rating, Blackgrass",blackgrass; [2],6
same,"Plant response rating, Blackgrass",blackgrass; [3],9
same,Blackgrass plant response rating,blackgrass; [4],9
same,Blackgrass plant response rating,blackgrass; [7],10
same,Blackgrass plant response rating,blackgrass; [5],10
same,Redroot pigweed plant response rating,pigweed; [1],7
same,Redroot pigweed plant response rating,pigweed; [6],9
same,"Plant response rating, Redroot pigweed",pigweed; [2],10
same,"Plant response rating, Redroot pigweed",pigweed; [3],10
same,Redroot pigweed plant response rating,pigweed; [4],10
same,Redroot pigweed plant response rating,pigweed; [5],10
same,Sugarbeets plant response rating,sugar beet; [1],6
same,Sugarbeets plant response rating,sugar beet; [6],6
same,"Plant response rating, Sugarbeets",sugar beet; [2],9
same,"Plant response rating, Sugarbeets",sugar beet; [3],9
same,Sugarbeets plant response rating,sugar beet; [4],10
same,Sugarbeets plant response rating,sugar beet; [5],10
same,Crabgrass plant response rating,crabgrass; [1],6
same,Crabgrass plant response rating,crabgrass; [6],9
same,Crabgrass plant response rating,crabgrass; [9],8
same,"Plant response rating, Crabgrass",crabgrass; [2],9
same,"Plant response rating, Crabgrass",crabgrass; [3],7
same,Crabgrass plant response rating,crabgrass; [4],9
same,Crabgrass plant response rating,crabgrass; [5],10
same,Velvetleaf plant response rating,velvetleaf; [1],4
same,Velvetleaf plant response rating,velvetleaf; [6],4
same,"Plant response rating, Velvetleaf",velvetleaf; [2],5
same,"Plant response rating, Velvetleaf",velvetleaf; [3],5
same,Velvetleaf plant response rating,velvetleaf; [4],8
same,Velvetleaf plant response rating,velvetleaf; [5],10
same,Corn plant response rating,corn; [1],2
same,Corn plant response rating,corn; [6],2
same,Corn plant response rating,corn; [9],2
same,"Plant response rating, Corn",corn; [2],6
same,"Plant response rating, Corn",corn; [3],0
same,Corn plant response rating,corn; [4],5
same,Corn plant response rating,corn; [5],8
same,Soybean plant response rating,soybean; [1],3
same,Soybean plant response rating,soybean; [6],4
same,"Plant response rating, Soybean",soybean; [2],4
same,"Plant response rating, Soybean",soybean; [3],0
same,Soybean plant response rating,soybean; [4],3
same,Soybean plant response rating,soybean; [5],8
same,Giant foxtail plant response rating,giant foxtail; [1],7
same,Giant foxtail plant response rating,giant foxtail; [6],8
same,"Plant response rating, Giant foxtail",giant foxtail; [2],9
same,"Plant response rating, Giant foxtail",giant foxtail; [3],9
same,Giant foxtail plant response rating,giant foxtail; [4],10
same,Giant foxtail plant response rating,giant foxtail; [5],10
same,Morningglory plant response rating,morningglory; [1],3
same,Morningglory plant response rating,morningglory; [6],3
same,"Plant response rating, Morningglory",morningglory; [2],3
same,"Plant response rating, Morningglory",morningglory; [3],0
same,Morningglory plant response rating,morningglory; [4],5
same,Morningglory plant response rating,morningglory; [5],9
same,Rape plant response rating,rape; [1],3
same,Rape plant response rating,rape; [6],3
same,"Plant response rating, Rape",rape; [2],8
same,"Plant response rating, Rape",rape; [3],9
same,Rape plant response rating,rape; [4],10
same,Rape plant response rating,rape; [5],10
same,Bedstraw plant response rating,bedstraw; [6],9
same,Bedstraw plant response rating,bedstraw; [9],9
same,"Plant response rating, Bedstraw",bedstraw; Preemergence,8
same,Bedstraw plant response rating,bedstraw; [4],9
same,Bedstraw plant response rating,bedstraw; [7],9
same,Bedstraw plant response rating,bedstraw; [8],10
same,Wild oats plant response rating,wild oat; [1],0
same,Wild oats plant response rating,wild oat; [6],0
same,"Plant response rating, Wild oats",wild oat; [2],7
same,"Plant response rating, Wild oats",wild oat; [3],7
same,Wild oats plant response rating,wild oat; [4],9
same,Wild oats plant response rating,wild oat; [5],10
same,Cocklebur plant response rating,cocklebur; [1],3
same,Cocklebur plant response rating,cocklebur; [6],3
same,Cocklebur plant response rating,cocklebur; [9],3
same,"Plant response rating, Cocklebur",cocklebur; [2],5
same,"Plant response rating, Cocklebur",cocklebur; [3],0
same,Cocklebur plant response rating,cocklebur; [4],0
same,Cocklebur plant response rating,cocklebur; [7],2
same,Cocklebur plant response rating,cocklebur; [5],2
COCn1c(=O)on(C(=O)N(c2ccc(F)cc2F)C(C)C)c1=O [Compound 503],"Plant response rating, Wheat",wheat; [3],0
same,Wheat plant response rating,wheat; [4],2
same,Wheat plant response rating,wheat; [5],8
same,"Plant response rating, B. signalgrass",surinam grass; [3],6
same,B. signalgrass plant response rating,surinam grass; [4],8
same,B. signalgrass plant response rating,surinam grass; [7],8
same,B. signalgrass plant response rating,surinam grass; [8],9
same,"Plant response rating, Nutsedge",purple nutsedge; [3],0
same,Nutsedge plant response rating,purple nutsedge; [4],0
same,Nutsedge plant response rating,purple nutsedge; [5],2
same,"Plant response rating, Blackgrass",blackgrass; [3],10
same,Blackgrass plant response rating,blackgrass; [4],9
same,Blackgrass plant response rating,blackgrass; [7],9
same,Blackgrass plant response rating,blackgrass; [5],10
same,"Plant response rating, Redroot pigweed",pigweed; [3],8
same,Redroot pigweed plant response rating,pigweed; [4],10
same,Redroot pigweed plant response rating,pigweed; [5],10
same,"Plant response rating, Sugarbeets",sugar beet; [3],2
same,Sugarbeets plant response rating,sugar beet; [4],6
same,Sugarbeets plant response rating,sugar beet; [5],9
same,"Plant response rating, Crabgrass",crabgrass; [3],8
same,Crabgrass plant response rating,crabgrass; [4],8
same,Crabgrass plant response rating,crabgrass; [5],9
same,"Plant response rating, Velvetleaf",velvetleaf; [3],6
same,Velvetleaf plant response rating,velvetleaf; [4],6
same,Velvetleaf plant response rating,velvetleaf; [5],8
same,"Plant response rating, Corn",corn; [3],3
same,Corn plant response rating,corn; [4],5
same,Corn plant response rating,corn; [5],9
same,"Plant response rating, Soybean",soybean; [3],2
same,Soybean plant response rating,soybean; [4],3
same,Soybean plant response rating,soybean; [5],7
same,"Plant response rating, Giant foxtail",giant foxtail; [3],9
same,Giant foxtail plant response rating,giant foxtail; [4],9
same,Giant foxtail plant response rating,giant foxtail; [5],10
same,"Plant response rating, Morningglory",morningglory; [3],2
same,Morningglory plant response rating,morningglory; [4],2
same,Morningglory plant response rating,morningglory; [5],7
same,"Plant response rating, Rape",rape; [3],4
same,Rape plant response rating,rape; [4],8
same,Rape plant response rating,rape; [5],9
same,"Plant response rating, Bedstraw",bedstraw; Preemergence,5
same,Bedstraw plant response rating,bedstraw; [4],5
same,Bedstraw plant response rating,bedstraw; [7],6
same,Bedstraw plant response rating,bedstraw; [8],10
same,"Plant response rating, Wild oats",wild oat; [3],6
same,Wild oats plant response rating,wild oat; [4],10
same,Wild oats plant response rating,wild oat; [5],9
same,"Plant response rating, Cocklebur",cocklebur; [3],0
same,Cocklebur plant response rating,cocklebur; [4],0
same,Cocklebur plant response rating,cocklebur; [7],0
same,Cocklebur plant response rating,cocklebur; [5],3
